Assay results reported in ChEMBL document CHEMBL4823287, “Design and synthesis of novel 5-alkynyl pyrimidine nucleosides derivatives: Influence of C-6-substituent on antituberculosis activity” (2021).
Values after ≈ are worked out from the molar mass of the structure shown.

Tests used:
[1] = tested on: Mycobacterium tuberculosis; assay: Antimycobacterial activity against Mycobacterium bovis BCG assessed as inhibition of bacterial growth at 100 ug/ml measured by microplate alamar blue assay; type: functional; conditions: variant bovis BCG
[2] = tested on: Mycobacterium tuberculosis; assay: Antimycobacterial activity against Mycobacterium bovis BCG assessed as inhibition of bacterial growth at 1 to 5 ug/ml measured by microplate alamar blue assay; type: functional, variant bovis BCG; conditions: dose 1-5 µg/ml; at 1 to 5 µg/mL
[3] = tested on: Mycobacterium tuberculosis; assay: Antimycobacterial activity against Mycobacterium bovis BCG assessed as inhibition of bacterial growth at 10 ug/ml measured by microplate alamar blue assay; type: functional; conditions: variant bovis BCG
[4] = tested on: Mycobacterium tuberculosis; assay: Antimycobacterial activity against Mycobacterium bovis BCG assessed as inhibition of bacterial growth at measured by microplate alamar blue assay; type: functional; conditions: variant bovis BCG
[5] = tested on: Mycobacterium tuberculosis; assay: Antimycobacterial activity against Mycobacterium bovis BCG assessed as inhibition of bacterial growth at 50 ug/ml measured by microplate alamar blue assay; type: functional; conditions: variant bovis BCG
[6] = tested on: Mycobacterium tuberculosis; assay: Antimycobacterial activity against Mycobacterium bovis BCG assessed as inhibition of bacterial growth at 5 ug/ml measured by microplate alamar blue assay; type: functional; conditions: variant bovis BCG
[7] = tested on: Mycobacterium tuberculosis; assay: Antimycobacterial activity against Mycobacterium bovis BCG assessed as inhibition of bacterial growth at 25 ug/ml measured by microplate alamar blue assay; type: functional; conditions: variant bovis BCG
[8] = tested on: Mycobacterium tuberculosis; assay: Antimycobacterial activity against Mycobacterium bovis BCG assessed as inhibition of bacterial growth at 1 ug/ml measured by microplate alamar blue assay; type: functional; conditions: variant bovis BCG

SMILES	inhibition at 100 µg/mL [1] [%]	inhibition (INH) [2] [%]	inhibition at 10 µg/mL [3] [%]	MIC50 [4] [µg/mL]	inhibition at 50 µg/mL [5] [%]	inhibition at 5 µg/mL [6] [%]	inhibition at 25 µg/mL [7] [%]	inhibition at 1 µg/mL [8] [%]
Cc1c(C#CC2CC2)c(=O)[nH]c(=O)n1[C@@H]1O[C@H](CO)[C@@H](O)[C@H]1O	90	50	80	2.1 (≈ 6.52 µM)				
CCCC#Cc1c(C)n([C@@H]2O[C@H](CO)[C@@H](O)[C@H]2O)c(=O)[nH]c1=O	90		0	< 50	60			
N[C@@H]1CONC1=O [CYCLOSERINE]			71	5.1 (≈ 50 µM)		50		
Cc1c(C#Cc2ccccc2)c(=O)[nH]c(=O)n1[C@@H]1O[C@H](CO)[C@@H](O)[C@H]1O	90	50	75	2.2 (≈ 6.14 µM)	75			
Cc1c(C#CCC(C)C)c(=O)[nH]c(=O)n1[C@@H]1O[C@H](CO)[C@@H](O)[C@H]1O		10		18.9 (≈ 55.9 µM)	100		60	
CC#Cc1c(C)n([C@@H]2O[C@H](CO)[C@@H](O)[C@H]2O)c(=O)[nH]c1=O	90		0	50 (≈ 169 µM)	50			
CCCCC#Cc1c(C)n([C@@H]2O[C@H](CO)[C@@H](O)[C@H]2O)c(=O)[nH]c1=O		10		18.6 (≈ 55 µM)	100		60	
Cc1c(C#CC2CCCCC2)c(=O)[nH]c(=O)n1[C@@H]1O[C@H](CO)[C@@H](O)[C@H]1O		10		14.7 (≈ 40.3 µM)	100		70	
Cc1c(C#C[Si](C)(C)C)c(=O)[nH]c(=O)n1[C@@H]1O[C@H](CO)[C@@H](O)[C@H]1O	0							
CCC#Cc1c(C)n([C@@H]2O[C@H](CO)[C@@H](O)[C@H]2O)c(=O)[nH]c1=O	90		0	50 (≈ 161 µM)	50			
NNC(=O)c1ccncc1 [ISONIAZID]				0.9 (≈ 6.56 µM)				100
Cc1c(C#CC(O)c2ccccc2)c(=O)[nH]c(=O)n1[C@@H]1O[C@H](CO)[C@@H](O)[C@H]1O (stereo partly specified)				0.7 (≈ 1.8 µM)				100
CCCCCCC#Cc1c(C)n([C@@H]2O[C@H](CO)[C@@H](O)[C@H]2O)c(=O)[nH]c1=O	90			< 50	60			
CO[C@H]1/C=C/O[C@@]2(C)Oc3c(C)c(O)c4c(O)c(c(/C=N/N5CCN(C)CC5)c(O)c4c3C2=O)NC(=O)/C(C)=C\C=C\[C@H](C)[C@H](O)[C@@H](C)[C@@H](O)[C@@H](C)[C@H](OC(C)=O)[C@@H]1C [RIFAMPIN]				0.8 (≈ 0.972 µM)				100
